Assay results as given in patent US8952024B2, “Herbicidal pyrimidone derivatives” (E I du Pont de Nemours and Company, priority 2009, dated 2015).

Key:
Assay type in all cases: in vivo
[1] = tested on: large crabgrass (Digitaria sanguinalis); experiment: Test A pre-/postemergence plant response
Outline: (§1)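 Greenhouse pots of loam/sand received directed preemergence soil sprays or postemergence sprays (plants 2–10 cm, 1–2 leaf stage), compounds formulated in non-phytotoxic solvent with surfactant. Injury was rated visually versus untreated controls after about ten days on a 0 (no effect) to 100 (complete control) scale.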

[2] = tested on: morningglory (Ipomoea spp.); experiment: Test A pre-/postemergence plant response
Outline: as §1

[3] = tested on: velvetleaf (Abutilon theophrasti); experiment: Test A pre-/postemergence plant response
Outline: as §1

[4] = tested on: wheat (Triticum aestivum); experiment: Test A pre-/postemergence plant response
Outline: as §1

[5] = tested on: cocklebur (Xanthium strumarium); experiment: Test B pre-/postemergence plant response
Outline: (§2)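 Steps: sow seed in loam–sand soil and spray preemergence, or grow plants in peat-based medium to 1–4 leaves (2–18 cm) and spray postemergence; formulation is non-phytotoxic solvent plus surfactant; hold in greenhouse 13–15 days; score visually vs controls, 0 = no effect, 100 = complete control.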

[6] = tested on: downy bromegrass (Bromus tectorum); experiment: Test B pre-/postemergence plant response
Outline: as §2

[7] = tested on: giant foxtail (Setaria faberii); experiment: Test B pre-/postemergence plant response
Outline: as §2

[8] = tested on: goosegrass (Eleusine indica); experiment: Test B pre-/postemergence plant response
Outline: as §2

[9] = tested on: green foxtail (Setaria viridis); experiment: Test B pre-/postemergence plant response
Outline: as §2

kochia (Kochia scoparia) = experiment: Test B pre-/postemergence plant response; details: Postemergence; for Plant response rating, Kochia: scale 0 (no effect) to 100 (complete control); for Kochia plant response rating: 250 g ai/ha, scale 0 to 100
Outline: as §2

[10] = tested on: morningglory (Ipomoea coccinea); experiment: Test B pre-/postemergence plant response
Outline: as §2

[11] = tested on: pigweed (Amaranthus retroflexus); experiment: Test B pre-/postemergence plant response
Outline: as §2

[12] = tested on: wheat (Triticum aestivum); experiment: Test B pre-/postemergence plant response
Outline: as §2

[13] = Postemergence, 125 g ai/ha, visual injury, 0 to 100 scale (0 no effect, 100 complete control), approx. ten days
[14] = Postemergence, 500 g ai/ha, 0 to 100 scale, 0 = no effect, 100 = complete control, approx. ten days
[15] = Preemergence, 125 g ai/ha, 0 to 100 scale, 0 = no effect, 100 = complete control
[16] = Preemergence, 500 g ai/ha, visual injury, 0 to 100 scale (0 no effect, 100 complete control), approx. ten days
[17] = 250 g ai/ha, Preemergence, 0 to 100 scale
[18] = Postemergence, 31 g ai/ha, scale 0 to 100 (0 no effect, 100 complete control)
[19] = Postemergence, 62 g ai/ha, scale 0 (no effect) to 100 (complete control), 13 to 15 days
[20] = Postemergence, 125 g ai/ha, visual rating after 13 to 15 days, scale 0 (no effect) to 100 (complete control)
[21] = Postemergence, 250 g ai/ha, scale 0 to 100
[22] = Preemergence, 31 g ai/ha, scale 0 to 100 (0 no effect, 100 complete control)
[23] = Preemergence, 62 g ai/ha, scale 0 to 100, 0 no effect, 100 complete control
[24] = Preemergence, 125 g ai/ha, 0 to 100 scale
[25] = 125 g ai/ha, visual rating after 13 to 15 days

For `O=C1CCCC(O)=C1C(=O)c1cnc(-c2cccc(Cl)c2)n(-c2ccccc2)c1=O` [Compound 34], the “Crabgrass, Large plant response rating” value [1, 13] was 90, the “Plant response rating, Crabgrass, Large” value [1, 14] was 100 and the “Plant response rating, Crabgrass, Large” value [1, 15] was 90. The “Plant response rating, Crabgrass, Large” value [1, 16] was 100, the “Morningglory plant response rating” value [2, 13] was 80 and the “Plant response rating, Morningglory” value [2, 14] was 100. The “Plant response rating, Morningglory” value [2, 15] was 10, the “Plant response rating, Morningglory” value [2, 16] was 60 and the “Velvetleaf plant response rating” value [3, 13] was 100. The “Plant response rating, Velvetleaf” value [3, 14] was 100, the “Plant response rating, Velvetleaf” value [3, 15] was 50 and the “Plant response rating, Velvetleaf” value [3, 16] was 100. The “Wheat plant response rating” value [4, 13] was 0, the “Plant response rating, Wheat” value [4, 14] was 30 and the “Plant response rating, Wheat” value [4, 15] was 0. For the same compound, the “Plant response rating, Wheat” value [4, 16] was 0, the “Plant response rating, Cocklebur” value [5, 17] was 85 and the “Plant response rating, Cocklebur” value [5, 18] was 0. For the same compound, the “Plant response rating, Cocklebur” value [5, 19] was 25, the “Plant response rating, Cocklebur” value [5, 20] was 85 and the “Cocklebur plant response rating” value [5, 21] was 95. The “Plant response rating, Cocklebur” value [5, 22] was 0, the “Plant response rating, Cocklebur” value [5, 23] was 55 and the “Cocklebur plant response rating” value [5, 24] was 75. For the same compound, the “Plant response rating, Bromegrass, Downy” value [6, 17] was 80, the “Plant response rating, Bromegrass, Downy” value [6, 18] was 40 and the “Plant response rating, Bromegrass, Downy” value [6, 19] was 50. The “Plant response rating, Bromegrass, Downy” value [6, 20] was 50, the “Bromegrass, Downy plant response rating” value [6, 21] was 50 and the “Plant response rating, Bromegrass, Downy” value [6, 23] was 0. For the same compound, the “Bromegrass, Downy plant response rating” value [6, 24] was 10, the “Plant response rating, Foxtail, Giant” value [7, 17] was 100 and the “Plant response rating, Foxtail, Giant” value [7, 18] was 85. For the same compound, the “Plant response rating, Foxtail, Giant” value [7, 19] was 90, the “Plant response rating, Foxtail, Giant” value [7, 20] was 95 and the “Foxtail, Giant plant response rating” value [7, 21] was 95. For the same compound, the “Plant response rating, Foxtail, Giant” value [7, 22] was 15, the “Plant response rating, Foxtail, Giant” value [7, 23] was 55 and the “Foxtail, Giant plant response rating” value [7, 24] was 90. For the same compound, the “Plant response rating, Goosegrass” value [8, 17] was 100, the “Plant response rating, Goosegrass” value [8, 19] was 80 and the “Plant response rating, Goosegrass” value [8, 20] was 90. For the same compound, the “Goosegrass plant response rating” value [8, 21] was 95, the “Plant response rating, Goosegrass” value [8, 22] was 95 and the “Goosegrass plant response rating” value [8, 24] was 100. For the same compound, the “Plant response rating, Foxtail, Green” value [9, 17] was 100, the “Plant response rating, Foxtail, Green” value [9, 18] was 70 and the “Plant response rating, Foxtail, Green” value [9, 19] was 90. The “Plant response rating, Foxtail, Green” value [9, 20] was 90, the “Foxtail, Green plant response rating” value [9, 21] was 95 and the “Plant response rating, Foxtail, Green” value [9, 22] was 50. For the same compound, the “Plant response rating, Foxtail, Green” value [9, 23] was 70, the “Foxtail, Green plant response rating” value [9, 24] was 90 and the “Plant response rating, Kochia” value (kochia (Kochia scoparia); 62 g ai/ha, 13 to 15 days) was 95. The “Plant response rating, Kochia” value (kochia (Kochia scoparia); [25]) was 100, the “Kochia plant response rating” value (kochia (Kochia scoparia)) was 100 and the “Plant response rating, Morningglory” value [10, 17] was 98. For the same compound, the “Plant response rating, Morningglory” value [10, 19] was 80, the “Plant response rating, Morningglory” value [10, 20] was 85 and the “Plant response rating, Morningglory” value [10, 22] was 0. For the same compound, the “Plant response rating, Morningglory” value [10, 23] was 0, the “Morningglory plant response rating” value [10, 24] was 75 and the “Plant response rating, Pigweed” value [11, 17] was 100. The “Plant response rating, Pigweed” value [11, 19] was 90, the “Plant response rating, Pigweed” value [11, 20] was 98 and the “Plant response rating, Pigweed” value [11, 22] was 100. The “Plant response rating, Pigweed” value [11, 23] was 100, the “Pigweed plant response rating” value [11, 24] was 100 and the “Plant response rating, Wheat” value [12, 17] was 0. The “Plant response rating, Wheat” value [12, 19] was 10, the “Plant response rating, Wheat” value [12, 20] was 35 and the “Plant response rating, Wheat” value [12, 23] was 0. For the same compound, the “Wheat plant response rating” value [12, 24] was 0.
In the case of `O=C1CCCC(O)=C1C(=O)c1cnc(-c2ccccc2)n(-c2ccccc2Br)c1=O` [Compound 37], the “Crabgrass, Large plant response rating” value [1, 13] is reported as 70, the “Plant response rating, Crabgrass, Large” value [1, 14] is reported as 100 and the “Plant response rating, Crabgrass, Large” value [1, 15] is reported as 10. The “Plant response rating, Crabgrass, Large” value [1, 16] was 50, the “Morningglory plant response rating” value [2, 13] was 80 and the “Plant response rating, Morningglory” value [2, 14] was 100. The “Plant response rating, Morningglory” value [2, 15] was 0, the “Plant response rating, Morningglory” value [2, 16] was 30 and the “Velvetleaf plant response rating” value [3, 13] was 100. The “Plant response rating, Velvetleaf” value [3, 14] was 100, the “Plant response rating, Velvetleaf” value [3, 15] was 50 and the “Plant response rating, Velvetleaf” value [3, 16] was 90. For the same compound, the “Wheat plant response rating” value [4, 13] was 0, the “Plant response rating, Wheat” value [4, 14] was 0 and the “Plant response rating, Wheat” value [4, 15] was 0. The “Plant response rating, Wheat” value [4, 16] was 0, the “Plant response rating, Cocklebur” value [5, 17] was 45 and the “Plant response rating, Cocklebur” value [5, 22] was 0. For the same compound, the “Cocklebur plant response rating” value [5, 24] was 0, the “Plant response rating, Bromegrass, Downy” value [6, 17] was 0 and the “Plant response rating, Bromegrass, Downy” value [6, 18] was 0. The “Plant response rating, Bromegrass, Downy” value [6, 19] was 10, the “Plant response rating, Bromegrass, Downy” value [6, 20] was 15 and the “Bromegrass, Downy plant response rating” value [6, 21] was 45. The “Plant response rating, Bromegrass, Downy” value [6, 22] was 0, the “Plant response rating, Bromegrass, Downy” value [6, 23] was 0 and the “Bromegrass, Downy plant response rating” value [6, 24] was 0. For the same compound, the “Plant response rating, Foxtail, Giant” value [7, 17] was 75, the “Plant response rating, Foxtail, Giant” value [7, 18] was 70 and the “Plant response rating, Foxtail, Giant” value [7, 19] was 85. The “Plant response rating, Foxtail, Giant” value [7, 20] was 95, the “Foxtail, Giant plant response rating” value [7, 21] was 100 and the “Plant response rating, Foxtail, Giant” value [7, 22] was 0. The “Plant response rating, Foxtail, Giant” value [7, 23] was 0, the “Foxtail, Giant plant response rating” value [7, 24] was 0 and the “Plant response rating, Goosegrass” value [8, 17] was 100. For the same compound, the “Plant response rating, Goosegrass” value [8, 19] was 85, the “Plant response rating, Goosegrass” value [8, 20] was 85 and the “Goosegrass plant response rating” value [8, 21] was 95. The “Plant response rating, Goosegrass” value [8, 22] was 0, the “Goosegrass plant response rating” value [8, 24] was 80 and the “Plant response rating, Foxtail, Green” value [9, 17] was 90. The “Plant response rating, Foxtail, Green” value [9, 18] was 60, the “Plant response rating, Foxtail, Green” value [9, 19] was 65 and the “Plant response rating, Foxtail, Green” value [9, 20] was 85. The “Foxtail, Green plant response rating” value [9, 21] was 95, the “Plant response rating, Foxtail, Green” value [9, 22] was 0 and the “Plant response rating, Foxtail, Green” value [9, 23] was 0. The “Foxtail, Green plant response rating” value [9, 24] was 0, the “Plant response rating, Kochia” value (kochia (Kochia scoparia); 62 g ai/ha, 13 to 15 days) was 0 and the “Plant response rating, Kochia” value (kochia (Kochia scoparia); [25]) was 15. For the same compound, the “Kochia plant response rating” value (kochia (Kochia scoparia)) was 65, the “Plant response rating, Morningglory” value [10, 17] was 0 and the “Plant response rating, Morningglory” value [10, 19] was 70. The “Plant response rating, Morningglory” value [10, 20] was 75, the “Plant response rating, Morningglory” value [10, 22] was 0 and the “Plant response rating, Morningglory” value [10, 23] was 0. The “Morningglory plant response rating” value [10, 24] was 0, the “Plant response rating, Pigweed” value [11, 17] was 100 and the “Plant response rating, Pigweed” value [11, 19] was 85. For the same compound, the “Plant response rating, Pigweed” value [11, 20] was 98, the “Plant response rating, Pigweed” value [11, 22] was 100 and the “Pigweed plant response rating” value [11, 24] was 100. For the same compound, the “Plant response rating, Wheat” value [12, 17] was 0, the “Plant response rating, Wheat” value [12, 19] was 0 and the “Plant response rating, Wheat” value [12, 20] was 0. For the same compound, the “Plant response rating, Wheat” value [12, 22] was 0 and the “Wheat plant response rating” value [12, 24] was 0.
